Reference: EPA's ToxValDB 9.5 (doi:10.2903/j.efsa.2017.4695)

Columns and labels:
Lepomis macrochirus = details: acute; duration: 96 hours; mortality
Colinus virginianus = details: acute; oral; mortality
Oryctolagus sp. = details: developmental; development
Tagia sp. = details: chronic/long-term; duration: 8 weeks; reproduction
Rattus norvegicus = details: acute; oral; mortality
Bibionidae = details: chronic/long-term; duration: 28 days; development
Folsomia candida = details: chronic/long-term; duration: 4 weeks; mortality
Apis mellifera = details: acute, mortality
Pimephales promelas = details: chronic/long-term; reproduction
Daphnia magna = details: chronic/long-term; duration: 21 days; reproduction
Typhlodromus pyri = experiment: LR50; higher = less toxic; details: acute; mortality
Aphidius rhopalosiphi = experiment: LR50; higher = less toxic; details: acute; mortality

In the case of `COc1cc(OC)nc(NC(=O)NS(=O)(=O)c2c(Cl)nc3ccccn23)n1` [Imazosulfuron], the LC50 (Lepomis macrochirus) is reported as over 74 mg/L, the LD50 (Colinus virginianus) is reported as over 2250 mg/kg-day and the NOAEL (Oryctolagus sp.) is reported as 50 mg/kg-day. It also gave an NOEC (Tagia sp.) of 500 mg/kg, an LD50 (Rattus norvegicus) of over 1000 mg/kg-day and an NOEC (Bibionidae) of 490 µg/L. It also gave an NOEC (Folsomia candida) of 1000 mg/kg, an LD50 (Apis mellifera; dermal) of over 100 µg/piece and an LD50 (Apis mellifera; oral, unspecified) of over 41.6 µg/piece. For the same compound, the NOEC (Pimephales promelas) was 2.9 mg/L, the LD50 (Anas platyrhynchos; acute, oral, unspecified, mortality) was over 2250 mg/kg-day and the NOAEL (Anas platyrhynchos; reproductive, other) was 15.9 mg/kg-day. It also gave an NOEC (Daphnia magna) of 0.84 mg/L, an LR50 (Typhlodromus pyri) of over 50 g/ha and an LR50 (Aphidius rhopalosiphi) of over 50 g/ha.
